Measured values as given in EP2921486B1, “Compositions and methods for treating beta-amyloid related diseases” (American Life Science Pharmaceuticals, Inc., priority 2009, dated 2011).
Like-named read-outs stand apart in the source and are kept apart here.

Tests used:
transgenic APPlon mice = assay: Morris water maze test, spatial memory deficit; format: in vivo; details: E64d-doped chow for 1 month or 3 months, either age group
From the text: Figure 16 is not descriptive of the claimed invention. Figure 16 graphically illustrates data showing the effects of AB-007 (E64d, loxistatin)-doped chow on the spatial memory deficit that develops in transgenic APPlon (London APP) mice, see above description, and e.g. Hook, et al. (2008) supra. The Morris water maze test was used to measure the latency period, which is the time it takes an animal to swim to a submerged and not visible platform after having been previously trained as to the location of that platform. The longer the latency period, the poorer the spatial memory. Two groups of animals were evaluated, young and old mice.

[1] = high oral doses (500 mg/kg and 1 g/kg), cited from earlier work
brain Aβ(40) and Aβ(42) = details: for Summary Aβ 40 Mean % Control / Summary Aβ 42 Mean % Control: 1 & 3 month feeding; for Aβ 40 Difference / Aβ 42 Difference: control minus treated; for Aβ 40 % Control / Aβ 42 % Control: per cent reduction in Aβ
[2] = cited from earlier work
[3] = system: brain Aβ40 and brain Aβ42; details: guinea pig, oral 10 mg/kg/day, 7 days
[4] = maximal intravenous or oral doses, rats; cited from earlier work
[5] = cited from earlier work; remark: listed apart in the source
[6] = healthy human volunteers, oral, about 5 mg/kg/day, single or continuous 1 week; cited from earlier work
brain BACE1 = assay: Brain BACE1 activity after once-a-day oral gavage (fluorometric kit); format: in vivo; details: guinea pigs, once-a-day oral administration
From the text: (§1) Guinea Pigs. Guinea Pigs (Harley strain, average weight 400 g corresponding to animals about 6 weeks old) were obtained from Charles River (Wilmington, MA). The animals were given free access to standard chow and water before and during the experiment.
(§2) Gavage Formulation: Delivering a drug by gavage offers the advantage of accurate dosing but is traumatic and thus only suitable for relatively short dosing periods. Gavage delivery was used for the guinea pig work. E64d was resuspended in DMSO at indicated concentrations (see Figures, and below) and guinea pigs were gavaged daily using a feeding tube. Vehicle control animals were provided DMSO alone.
(§3) Guinea Pig Gavage Dosing: Guinea pigs were gavaged daily for one week. Guinea pigs were lightly anesthetized with isoflurane prior to gavaging. 250 µl of compound solution was gavaged daily per animal and animals were sacrificed 4 hrs after the last dosing.
The brain BRACE1 activity in guinea pigs was measured by Beta secretase activity was determined using a fluorometric assay kit from Abcam (ab65357) as described by the manufacturer.

[7] = rats, cited from earlier work
[8] = 5-week stability test at 60°C; format: physicochemical; details: read-out: compound remaining
Aβ(40) and Aβ(42) = assay: Brain, CSF and plasma Aβ ELISA after once-a-day oral gavage for one week (Example 9); format: in vivo; details: guinea pigs
From the text: as §1, §2, §3

brain cathepsin B = assay: Brain cathepsin B activity after once-a-day oral gavage (fluorometric kit); format: in vivo; details: guinea pigs, once-a-day oral administration
From the text: as §1, §2, §3
The brain cathepsin B activity in guinea pigs was measured as follows: Cathepsin B activity was determined using a fluorometric assay kit from Abeam, Inc. (catalog ab65300; Cambridge, MA) as described by the manufacturer.

[9] = oral, dogs; cited from earlier work
[10] = Old mice, 1 month feeding E64d doped chow
[11] = Old mice, 3 month feeding E64d doped chow
[12] = Young mice, 1 month feeding E64d doped chow
[13] = Young mice, 3 month feeding E64d doped chow

Question: Which “mean latency period relative to age-matched controls” value (transgenic APPlon mice) does the source give for `CCOC(=O)[C@H]1O[C@@H]1C(=O)N[C@@H](CC(C)C)C(=O)NCCC(C)C` (relative stereo) [AB-007, (2S,3S)-trans-epoxysuccinyl-L-leucyl-amido-3-methylbutane ethyl ester] here?
Answer: The value was “significantly reduced”.

Question: What about the “effect on the cardiovascular system” value [1] of the same compound?
Answer: Its value is “no effect”.

Question: And the “effect on the central nervous system” value ([1]; sedation, mild inhibition of pentetrazol-induced seizure)?
Answer: The value was “depress the central nervous system”.

Question: And the “Summary Aβ 40 Mean % Control” value (brain Aβ(40) and Aβ(42); All Ages)?
Answer: The value was 64%.

Question: And the “Summary Aβ 42 Mean % Control” value (brain Aβ(40) and Aβ(42); All Ages)?
Answer: Its value is 52%.

Question: What about the “Summary Aβ 40 Mean % Control” value (brain Aβ(40) and Aβ(42); Old mice) of the same compound?
Answer: Its value is 65%.

Question: What about the “Summary Aβ 42 Mean % Control” value (brain Aβ(40) and Aβ(42); Old mice) of the same compound?
Answer: The value was 42%.

Question: And the “Aβ 40 Mean treated” value (brain Aβ(40) and Aβ(42); [10])?
Answer: The value was 87.1.

Question: And the “Aβ 42 Mean treated” value (brain Aβ(40) and Aβ(42); [10])?
Answer: Its value is 31.9.

Question: What about the “Aβ 40 Difference” value (brain Aβ(40) and Aβ(42); Old mice, 1 month feeding) of the same compound?
Answer: The value was 142.9.

Question: What about the “Aβ 42 Difference” value (brain Aβ(40) and Aβ(42); Old mice, 1 month feeding) of the same compound?
Answer: The value was 26.6.

Question: What about the “Aβ 40 % Control” value (brain Aβ(40) and Aβ(42); Old mice, 1 month feeding) of the same compound?
Answer: Its value is 62%.

Question: What about the “Aβ 42 % Control” value (brain Aβ(40) and Aβ(42); Old mice, 1 month feeding) of the same compound?
Answer: Its value is 45%.

Question: What about the “Aβ 40 Mean treated” value (brain Aβ(40) and Aβ(42); [11]) of the same compound?
Answer: Its value is 91.2.

Question: What about the “Aβ 42 Mean treated” value (brain Aβ(40) and Aβ(42); [11]) of the same compound?
Answer: Its value is 61.3.

Question: And the “Aβ 40 Difference” value (brain Aβ(40) and Aβ(42); Old mice, 3 month feeding)?
Answer: The value was 195.3.

Question: What about the “Aβ 42 Difference” value (brain Aβ(40) and Aβ(42); Old mice, 3 month feeding) of the same compound?
Answer: The value was 38.5.

Question: What about the “Aβ 40 % Control” value (brain Aβ(40) and Aβ(42); Old mice, 3 month feeding) of the same compound?
Answer: Its value is 68%.

Question: And the “Aβ 42 % Control” value (brain Aβ(40) and Aβ(42); Old mice, 3 month feeding)?
Answer: The value was 39%.

Question: What about the “Summary Aβ 40 Mean % Control” value (brain Aβ(40) and Aβ(42); Young mice) of the same compound?
Answer: The value was 60%.

Question: And the “Summary Aβ 42 Mean % Control” value (brain Aβ(40) and Aβ(42); Young mice)?
Answer: Its value is 62%.

Question: And the “Aβ 40 Mean treated” value (brain Aβ(40) and Aβ(42); [12])?
Answer: Its value is 47.7.

Question: And the “Aβ 42 Mean treated” value (brain Aβ(40) and Aβ(42); [12])?
Answer: The value was 5.5.

Question: And the “Aβ 40 Difference” value (brain Aβ(40) and Aβ(42); Young mice, 1 month feeding)?
Answer: Its value is 47.5.

Question: And the “Aβ 42 Difference” value (brain Aβ(40) and Aβ(42); Young mice, 1 month feeding)?
Answer: The value was 6.

Question: What about the “Aβ 40 % Control” value (brain Aβ(40) and Aβ(42); Young mice, 1 month feeding) of the same compound?
Answer: Its value is 50%.

Question: What about the “Aβ 42 % Control” value (brain Aβ(40) and Aβ(42); Young mice, 1 month feeding) of the same compound?
Answer: The value was 52%.

Question: And the “Aβ 40 Mean treated” value (brain Aβ(40) and Aβ(42); [13])?
Answer: The value was 38.7.

Question: What about the “Aβ 42 Mean treated” value (brain Aβ(40) and Aβ(42); [13]) of the same compound?
Answer: Its value is 4.5.

Question: And the “Aβ 40 Difference” value (brain Aβ(40) and Aβ(42); Young mice, 3 month feeding)?
Answer: Its value is 87.4.

Question: And the “Aβ 42 Difference” value (brain Aβ(40) and Aβ(42); Young mice, 3 month feeding)?
Answer: Its value is 11.7.

Question: And the “Aβ 40 % Control” value (brain Aβ(40) and Aβ(42); Young mice, 3 month feeding)?
Answer: The value was 69%.

Question: And the “Aβ 42 % Control” value (brain Aβ(40) and Aβ(42); Young mice, 3 month feeding)?
Answer: The value was 72%.

Question: What about the oral dose absorbed ([2]; primary absorption site small intestine) of the same compound?
Answer: The oral dose absorbed was “about 60%”.

Question: And the “concentration in all other organs, including the brain” value ([2]; radioactive AB-007)?
Answer: The value was “corresponding to the plasma concentration or concentrations lower than plasma”.

Question: What about the “kidneys concentration relative to plasma concentration” value ([2]; radioactive AB-007) of the same compound?
Answer: Its value is ~12 times.

Question: What about the “liver concentration relative to plasma concentration” value ([2]; radioactive AB-007) of the same compound?
Answer: Its value is “about 25 times”.

Question: And the “time of maximum tissue concentration after administration” value ([2]; radioactive AB-007)?
Answer: Its value is 0.5 h.

Question: What about the “reduction of brain Aβ40 relative to vehicle treated controls” value [3] of the same compound?
Answer: Its value is 42%.

Question: And the “reduction of brain Aβ42 relative to vehicle treated controls” value [3]?
Answer: Its value is 42%.

Question: And the “influence on vision or hearing” value [4]?
Answer: Its value is “do not influence”.

Question: And the drug accumulation ([5]; humans)?
Answer: The drug accumulation was “No drug accumulation”.

Question: What about the “total urinary excretion rate” value ([5]; humans) of the same compound?
Answer: The value was “about 30%”.

Question: And the “conversion in the gut to E64c (loxistatin acid)” value ([5]; oral)?
Answer: Its value is “rapidly and completely converted”.

Question: And the “hematological tests, blood chemistry, urinalyses” value [6]?
Answer: Its value is “no changes”.

Question: What about the “pulse, blood pressure, body temperature, grip force, electrocardiogram, physician observations” value [6] of the same compound?
Answer: The value was “no change”.

Question: What about the “brain BACE1 activity” value (brain BACE1) of the same compound?
Answer: Its value is “increase”.

Question: What about the LD50 ([7]; oral) of the same compound?
Answer: Its LD50 is “over 10,000 mg/kg”.

Question: And the hepatic injury ([7]; does not occur in other species)?
Answer: Its hepatic injury is “hepatic injury seen in rats”.

Question: What about the remaining at 840 h [8] of the same compound?
Answer: Its remaining at 840 h is 99%.

Question: What about the “CSF Aβ” value (Aβ(40) and Aβ(42)) of the same compound?
Answer: Its value is “dose response reduction”.

Question: And the “CSF Aβ(42)” value (Aβ(40) and Aβ(42))?
Answer: Its value is “dose response reduction”.

Question: And the “brain Aβ(40)” value (Aβ(40) and Aβ(42))?
Answer: The value was “dose response reduction”.

Question: And the “brain Aβ(42)” value (Aβ(40) and Aβ(42))?
Answer: Its value is “dose response reduction”.

Question: What about the “plasma Aβ(40)” value (Aβ(40) and Aβ(42)) of the same compound?
Answer: The value was “dose response reduction”.

Question: What about the “plasma Aβ(42)” value (Aβ(40) and Aβ(42)) of the same compound?
Answer: Its value is “dose response reduction”.

Question: And the “brain cathepsin B activity” value (brain cathepsin B)?
Answer: The value was “dose response reduction”.

Question: And the LD50 [9]?
Answer: The LD50 was > 5,000 mg/kg.

Question: Which “brain BACE1 activity” value (brain BACE1) does the source give for `[2H]C([2H])([2H])C([2H])(CCNC(=O)[C@H](CC(C)C)NC(=O)[C@H]1O[C@@H]1C(=O)OCC)C([2H])([2H])[2H]` [Compound E64d7] here?
Answer: The value was “increase”.

Question: What about the “CSF Aβ” value (Aβ(40) and Aβ(42)) of the same compound?
Answer: Its value is “dose response reduction”.

Question: And the “CSF Aβ(42)” value (Aβ(40) and Aβ(42))?
Answer: The value was “dose response reduction”.

Question: What about the “brain Aβ(40)” value (Aβ(40) and Aβ(42)) of the same compound?
Answer: The value was “dose response reduction”.

Question: And the “brain Aβ(42)” value (Aβ(40) and Aβ(42))?
Answer: Its value is “dose response reduction”.

Question: And the “plasma Aβ(40)” value (Aβ(40) and Aβ(42))?
Answer: The value was “dose response reduction”.

Question: And the “plasma Aβ(42)” value (Aβ(40) and Aβ(42))?
Answer: Its value is “dose response reduction”.

Question: What about the “brain cathepsin B activity” value (brain cathepsin B) of the same compound?
Answer: The value was “dose response reduction”.
